The values that follow come from US8063071B2 (GlaxoSmithKline, LLC, priority 2007, dated 2011).

Each structure is given as a SMILES string. Structures can show the parent of a compound that is named as a salt.

The target of the test is T1, Recombinant human IKKβ (residues 1-737) (Homo sapiens, UniProt O14920).
T1 construct: Recombinant human IKKβ (residues 1-737); GST (C); made in house
T1 sequence (O14920 1-737): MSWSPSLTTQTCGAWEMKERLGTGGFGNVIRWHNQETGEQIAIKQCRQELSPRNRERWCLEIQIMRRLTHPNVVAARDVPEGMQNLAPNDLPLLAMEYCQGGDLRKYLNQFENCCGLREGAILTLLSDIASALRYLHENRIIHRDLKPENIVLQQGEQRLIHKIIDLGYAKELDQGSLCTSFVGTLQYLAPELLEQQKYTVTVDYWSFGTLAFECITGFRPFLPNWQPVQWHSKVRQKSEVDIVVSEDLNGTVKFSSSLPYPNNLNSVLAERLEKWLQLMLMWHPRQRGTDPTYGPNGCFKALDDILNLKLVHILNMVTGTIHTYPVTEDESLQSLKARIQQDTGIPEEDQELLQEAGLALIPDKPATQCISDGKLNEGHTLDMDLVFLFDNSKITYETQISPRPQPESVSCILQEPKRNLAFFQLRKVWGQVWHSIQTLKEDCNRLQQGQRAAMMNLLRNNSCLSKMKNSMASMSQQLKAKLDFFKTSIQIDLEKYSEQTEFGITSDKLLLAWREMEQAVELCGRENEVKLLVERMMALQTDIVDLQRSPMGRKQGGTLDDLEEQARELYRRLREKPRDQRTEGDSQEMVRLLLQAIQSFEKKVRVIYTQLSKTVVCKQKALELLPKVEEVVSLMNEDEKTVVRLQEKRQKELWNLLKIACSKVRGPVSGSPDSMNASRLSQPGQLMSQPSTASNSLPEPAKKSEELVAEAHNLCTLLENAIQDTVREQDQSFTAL
As to the kind of experiment: IKK2 assay (TR-FRET). It is filed as biochemical. The note with it: ATP 1 μM final, read-out: pIC50 against IKK2 (converted). The method, then:
Recombinant human IKKβ (residues 1-737) was expressed in baculovirus as a C-terminal GST-tagged fusion protein, and its activity was assessed using a time-resolved fluorescence resonance energy transfer (TR-FRET) assay. Briefly, IKK2 (0.5 nM-5 nM final) diluted in assay buffer (50 mM HEPES, 10 mM MgCl2, 1 mM CHAPS pH 7.4 with 1 mM DTT and 0.01% w/v BSA) was added to wells containing various concentrations of compound or DMSO vehicle (1.7% final). The reaction was initiated by the addition of GST-IB substrate (25 nM final)/ATP (1 μM final), in a total volume of 6 μl. The reaction was incubated for 15 minutes at room temperature, then terminated by the addition of 3 μl of detection reagent in buffer containing 50 mM EDTA (100 mM HEPES pH 7.4, 150 mM NaCl, 50 mM EDTA and 0.01% w/v BSA) containing antiphosphoserine-IB-32/36 monoclonal antibody 12C2 (Cell Signalling Technology, Beverly Mass., USA) labelled with W-1024 europium chelate (Wallac OY, Turku, Finland), and an APC-labelled anti-GST antibody (Prozyme, San Leandro, Calif., USA) was added and the reaction was further incubated for 60 minutes at room temperature. The degree of phosphorylation of GST-IB was measured using a BMG Rubystar plate reader (BMG Labtech, Aylesbury, UK) as a ratio of specific 665 nm energy transfer signal to reference europium 620 nm signal.
For orientation: Time-resolved FRET reads energy transfer from a long-lived donor to a nearby acceptor.
Turning to `CCS(=O)(=O)N1CCC(c2c[nH]c3c(C(N)=O)cc(-c4ccc(OC)c(CNC(C)C)c4)cc23)CC1` [Example 265, 3-[1-(ethylsulfonyl)-4-piperidinyl]-5-[3-{[(1-methylethyl)amino]methyl}-4-(methyloxy)phenyl]-1H-indole-7-carboxamide trifluoroacetate], the IC50 is no more than 10 µM.

On to `CCS(=O)(=O)N1CCC(c2c[nH]c3c(C(N)=O)cc(-c4ccc(OC)c(CNC)c4)cc23)CC1` [Example 266, 3-[1-(ethylsulfonyl)-4-piperidinyl]-5-[3-[(methylamino)methyl]-4-(methyloxy)phenyl]-1H-indole-7-carboxamide trifluoroacetate], for which the IC50 was no more than 10 µM.

Take `CCS(=O)(=O)N1CCC(c2c[nH]c3c(C(N)=O)cc(-c4ccc(OC)c(CNCC(C)(C)C)c4)cc23)CC1` [Example 267, 5-[3-{[(2,2-dimethylpropyl)amino]methyl}-4-(methyloxy)phenyl]-3-[1-(ethylsulfonyl)-4-piperidinyl]-1H-indole-7-carboxamide trifluoroacetate]: the IC50 is no more than 10 µM.

For `CCS(=O)(=O)N1CCC(c2c[nH]c3c(C(N)=O)cc(-c4cnn(CCN(C)CCO)c4)cc23)CC1` [Example 268, 3-[1-(ethylsulfonyl)-4-piperidinyl]-5-(1-{2-[(2-hydroxyethyl)(methyl)amino]ethyl}-1H-pyrazol-4-yl)-1H-indole-7-carboxamide], the IC50 is no more than 10 µM.

In the case of `CCNCc1cc(CNCC)cc(-c2cc(C(N)=O)c3[nH]cc(C4CCN(S(=O)(=O)CC)CC4)c3c2)c1` [Example 277, 5-{3,5-bis[(ethylamino)methyl]phenyl}-3-[1-(ethylsulfonyl)-4-piperidinyl]-1H-indole-7-carboxamide trifluoroacetate], the IC50 was greater than 10 µM.

Consider `CCS(=O)(=O)N1CCC(c2c[nH]c3c(C(N)=O)cc(-c4cc(CN(C)C)cc(CN(C)C)c4)cc23)CC1` [Example 278, 5-{3,5-bis[(dimethylamino)methyl]phenyl}-3-[1-(ethylsulfonyl)-4-piperidinyl]-1H-indole-7-carboxamide trifluoroacetate], for which the IC50 was greater than 10 µM.

Regarding `CCS(=O)(=O)N1CCC(c2c[nH]c3c(C(N)=O)cc(-c4cccc(C5CCCCN5)c4)cc23)CC1` (centres unmarked) [Example 279, 3-[1-(ethylsulfonyl)-4-piperidinyl]-5-[3-(2-piperidinyl)phenyl]-1H-indole-7-carboxamide trifluoroacetate], the IC50 is no more than 10 µM.

Turning to `CCNC(C)c1cccc(-c2cc(C(N)=O)c3[nH]cc(C4CCN(S(=O)(=O)CC)CC4)c3c2)c1` (centres unmarked) [Example 280, 5-{3-[1-(ethylamino)ethyl]phenyl}-3-[1-(ethylsulfonyl)-4-piperidinyl]-1H-indole-7-carboxamide trifluoroacetate], the IC50 was no more than 10 µM.

For the compound `CCS(=O)(=O)N1CCC(c2c[nH]c3c(C(N)=O)cc(-c4cccc(C(C)N(C)C)c4)cc23)CC1` (centres unmarked) [Example 281, 5-{3-[1-(dimethylamino)ethyl]phenyl}-3-[1-(ethylsulfonyl)-4-piperidinyl]-1H-indole-7-carboxamide trifluoroacetate], the IC50 was no more than 10 µM.

Take `CCS(=O)(=O)N1CCC(c2c[nH]c3c(C(N)=O)cc(-c4cc(F)cc(CNC)c4)cc23)CC1` [Example 282, 3-[1-(ethylsulfonyl)-4-piperidinyl]-5-{3-fluoro-5-[(methylamino)methyl]phenyl}-1H-indole-7-carboxamide trifluoroacetate]: the IC50 was no more than 10 µM.

For the compound `CCNCc1cc(F)cc(-c2cc(C(N)=O)c3[nH]cc(C4CCN(S(=O)(=O)CC)CC4)c3c2)c1` [Example 283, 5-{3-[(ethylamino)methyl]-5-fluorophenyl}-3-[1-(ethylsulfonyl)-4-piperidinyl]-1H-indole-7-carboxamide trifluoroacetate], the IC50 is no more than 10 µM.

As for `CCCNCc1cc(F)cc(-c2cc(C(N)=O)c3[nH]cc(C4CCN(S(=O)(=O)CC)CC4)c3c2)c1` [Example 284, 3-[1-(ethylsulfonyl)-4-piperidinyl]-5-{3-fluoro-5-[(propylamino)methyl]phenyl}-1H-indole-7-carboxamide trifluoroacetate], the IC50 was no more than 10 µM.

On to `CCS(=O)(=O)N1CCC(c2c[nH]c3c(C(N)=O)cc(-c4cc(F)cc(CNC(C)C)c4)cc23)CC1` [Example 285, 3-[1-(ethylsulfonyl)-4-piperidinyl]-5-(3-fluoro-5-{[(1-methylethyl)amino]methyl}phenyl)-1H-indole-7-carboxamide trifluoroacetate], for which the IC50 is no more than 10 µM.

Take `CCS(=O)(=O)N1CCC(c2c[nH]c3c(C(N)=O)cc(-c4cc(F)cc(CNCC(C)C)c4)cc23)CC1` [Example 286, 3-[1-(ethylsulfonyl)-4-piperidinyl]-5-(3-fluoro-5-{[(2-methylpropyl)amino]methyl}phenyl)-1H-indole-7-carboxamide trifluoroacetate]: the IC50 was no more than 10 µM.

Regarding `CCS(=O)(=O)N1CCC(c2c[nH]c3c(C(N)=O)cc(-c4cc(F)cc(CNC5CCC5)c4)cc23)CC1` [Example 287, 5-{3-[(cyclobutylamino)methyl]-5-fluorophenyl}-3-[1-(ethylsulfonyl)-4-piperidinyl]-1H-indole-7-carboxamide trifluoroacetate], the IC50 was no more than 10 µM.

For `CCS(=O)(=O)N1CCC(c2c[nH]c3c(C(N)=O)cc(-c4cc(F)cc(CN(C)C)c4)cc23)CC1` [Example 288, 5-{3-[(dimethylamino)methyl]-5-fluorophenyl}-3-[1-(ethylsulfonyl)-4-piperidinyl]-1H-indole-7-carboxamide trifluoroacetate], the IC50 was no more than 10 µM.

Regarding `CCS(=O)(=O)N1CCC(c2c[nH]c3c(C(N)=O)cc(-c4cc(F)cc(CN5CCCC5)c4)cc23)CC1` [Example 289, 3-[1-(ethylsulfonyl)-4-piperidinyl]-5-[3-fluoro-5-(1-pyrrolidinylmethyl)phenyl]-1H-indole-7-carboxamide trifluoroacetate], the IC50 was no more than 10 µM.

For `CCS(=O)(=O)N1CCC(c2c[nH]c3c(C(N)=O)cc(-c4cc(F)cc(CN5CCOCC5)c4)cc23)CC1` [Example 290, 3-[1-(ethylsulfonyl)-4-piperidinyl]-5-[3-fluoro-5-(4-morpholinylmethyl)phenyl]-1H-indole-7-carboxamide trifluoroacetate], the IC50 is no more than 10 µM.

In the case of `CCS(=O)(=O)N1CCC(c2c[nH]c3c(C(N)=O)cc(-c4cc(F)cc(CN5CCCCC5)c4)cc23)CC1` [Example 291, 3-[1-(ethylsulfonyl)-4-piperidinyl]-5-[3-fluoro-5-(1-piperidinylmethyl)phenyl]-1H-indole-7-carboxamide trifluoroacetate], the IC50 was no more than 10 µM.

`CCS(=O)(=O)N1CCC(c2c[nH]c3c(C(N)=O)cc(-c4csc(CN5CCCCC5)n4)cc23)CC1` [Example 354, 3-[1-(ethylsulfonyl)-4-piperidinyl]-5-[2-(1-piperidinylmethyl)-1,3-thiazol-4-yl]-1H-indole-7-carboxamide]: the IC50 is no more than 10 µM.

For the compound `CCS(=O)(=O)N1CCC(c2c[nH]c3c(C(N)=O)cc(-c4cccc(CNS(=O)(=O)c5csc6ccccc56)c4)cc23)CC1` [Example 382, 5-(3-{[(1-benzothien-3-ylsulfonyl)amino]methyl}phenyl)-3-[1-(ethylsulfonyl)-4-piperidinyl]-1H-indole-7-carboxamide], the IC50 is no more than 10 µM.

For the compound `CCS(=O)(=O)N1CCC(c2c[nH]c3c(C(N)=O)cc(-c4cccc(CNS(=O)(=O)c5ccc(F)c(F)c5)c4)cc23)CC1` [Example 384, 5-[3-({[(3,4-difluorophenyl)sulfonyl]amino}methyl)phenyl]-3-[1-(ethylsulfonyl)-4-piperidinyl]-1H-indole-7-carboxamide], the IC50 was no more than 10 µM.

As to `CCS(=O)(=O)N1CCC(c2c[nH]c3c(C(N)=O)cc(-c4ccc(NS(=O)(=O)C5CCCC5)cc4)cc23)CC1` [Example 387, 5-{4-[(cyclopentylsulfonyl)amino]phenyl}-3-[1-(ethylsulfonyl)-4-piperidinyl]-1H-indole-7-carboxamide trifluoroacetate], the IC50 is no more than 10 µM.
